Measurements taken from patent publication US9453014B2, “Cyclic amide derivatives as inhibitors of 11-β-hydroxysteroid dehydrogenase and uses thereof” (CONNEXIOS LIFE SCIENCES PVT. LTD., priority 2011, dated 2016).

Molecular target: T1, human full length HSD11 β 1 (Homo sapiens, UniProt P28845)
T1 construct: transient expression of human full length HSD11 β 1 expression vector; host or cells: CHO cells (transient transfection)
Assay: In Vitro HSD11β1 Inhibition Assay
Assay type: cell-based
Conditions: CHO cells transiently expressing human HSD11β1; 200 nM cortisone+500 uM NADPH overnight; cortisone to cortisol by LC/MS-MS; read-out: 11βHSD1 (IC50)
Procedure, shortened: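 CHO cells transiently transfected with human full-length HSD11β1 were re-seeded after 24 h and, 24 h later, incubated overnight with 200 nM cortisone plus 500 uM NADPH and inhibitor. Cortisone-to-cortisol conversion was measured by LC/MS-MS. IC50 from an 8-point log concentration–inhibition curve.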

T1 sequence (P28845 whole entry): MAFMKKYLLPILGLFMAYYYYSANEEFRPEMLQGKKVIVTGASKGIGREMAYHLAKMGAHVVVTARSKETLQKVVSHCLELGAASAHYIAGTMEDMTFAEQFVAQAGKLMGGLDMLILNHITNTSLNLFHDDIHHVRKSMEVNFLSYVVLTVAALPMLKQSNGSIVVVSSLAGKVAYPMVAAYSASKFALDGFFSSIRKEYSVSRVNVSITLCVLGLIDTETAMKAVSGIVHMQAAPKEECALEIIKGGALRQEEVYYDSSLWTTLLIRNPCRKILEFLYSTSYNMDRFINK

Compound | IC50 [nM]
CCOC(=O)C12CCCCC1N(C(=O)CC(C)c1c[nH]c3cccc(Cl)c13)CCC2 (stereo not shown) [Example 127, ethyl 1-[3-(4-chloro-1H-indol-3-yl)butanoyl]octahydroquinoline-4a(2H)-carboxylate] | > 250
CC(CC(=O)N1CCCC2(c3ccccc3)CCCCC12)c1c[nH]c2cccc(Cl)c12 (stereo not shown) [Example 128, 3-(4-chloro-1H-indol-3-yl)-1-(4a-phenyloctahydroquinolin-1(2H)-yl)butan-1-one] | > 250
CC(CC(=O)N1CCCC2(C(=O)O)CCCCC12)c1c[nH]c2cccc(Cl)c12 (stereo not shown) [Example 129, 1-[3-(4-chloro-1H-indol-3-yl)butanoyl]octahydroquinoline-4a(2H)-carboxylic acid] | > 250
CC(CC(=O)N1CCCC2(CO)CCCCC12)c1c[nH]c2cccc(Cl)c12 (stereo not shown) [Example 130, 3-(4-chloro-1H-indol-3-yl)-1-[4a-(hydroxymethyl)octahydroquinolin-1(2H)-yl]butan-1-one] | > 250
CC(CC(=O)N1CCCC2(CO)CCCCC12)c1c[nH]c2ccccc12 (stereo not shown) [Example 131, 1-[4a-(hydroxymethyl)octahydroquinolin-1(2H)-yl]-3-(1H-indol-3-yl)butan-1-one] | > 250
CC(C)C(CC(=O)N1CCOC2CCCCC21)c1c[nH]c2ccccc12 (stereo not shown) [Example 133, 3-(1H-indol-3-yl)-4-methyl-1-(octahydro-4H-1,4-benzoxazin-4-yl)pentan-1-one] | > 250
CC(C)C(CC(=O)N1CCOC2CCCCC21)c1cn(C)c2ccccc12 (stereo not shown) [Example 134, 4-methyl-3-(1-methyl-1H-indol-3-yl)-1-(octahydro-4H-1,4-benzoxazin-4-yl)pentan-1-one] | > 250
CC(C)C(CC(=O)N1CCOC2CCCCC21)c1c[nH]c2cccc(F)c12 (stereo not shown) [Example 135, 3-(4-fluoro-1H-indol-3-yl)-4-methyl-1-(octahydro-4H-1,4-benzoxazin-4-yl)pentan-1-one] | > 250
CC(CC(=O)N1CCOC2CCCCC21)c1c[nH]c2cccc(F)c12 (stereo not shown) [Example 136, 3-(4-fluoro-1H-indol-3-yl)-1-(octahydro-4H-1,4-benzoxazin-4-yl)butan-1-one] | > 250
CCOC(=O)C12CCCCC1N(C(=O)CC(C)c1nc3ccccc3s1)CCC2 (stereo not shown) [Example 141, ethyl 1-[3-(1,3-benzothiazol-2-yl)butanoyl]octahydroquinoline-4a(2H)-carboxylate] | > 250
CC(CC(=O)N1CCCC2(CO)CCCCC12)c1c[nH]c2ncccc12 (stereo not shown) [Example 146, 1-[4a-(hydroxymethyl)octahydroquinolin-1(2H)-yl]-3-(1H-pyrrolo[2,3-b]pyridin-3-yl)butan-1-one] | > 250
CC(CC(=O)N1CCCC2(CO)CCCCC12)c1c[nH]c2nccc(Cl)c12 (stereo not shown) [Example 147, 3-(4-chloro-1H-pyrrolo[2,3-b]pyridin-3-yl)-1-[4a-(hydroxymethyl)octahydroquinolin-1(2H)-yl]butan-1-one] | > 250
CC(CC(=O)N1CCCC2(O)CCCCC12)c1c[nH]c2ncccc12 (stereo not shown) [Example 148, 1-(4a-hydroxyoctahydroquinolin-1(2H)-yl)-3-(1H-pyrrolo[2,3-b]pyridin-3-yl)butan-1-one] | > 250
Cc1cccc2[nH]cc(C(C)CC(=O)N3CCCC4(C#N)CCCCC34)c12 (stereo not shown) [Example 149, 1-[3-(4-methyl-1H-indol-3-yl)butanoyl]octahydroquinoline-4a(2H)-carbonitrile] | > 250
O=C(O)C1CCN(C(=O)CC(c2ccccc2)c2nc3ccccc3s2)C2CCCCC12 (stereo not shown) [Example 152, 1-[3-(1,3-benzothiazol-2-yl)-3-phenylpropanoyl]decahydroquinoline-4-carboxylic acid] | > 250
CC(CC(=O)N1CCC(C(=O)O)C2CCCCC21)c1nc2ccccc2s1 (stereo not shown) [Example 154, 1-[3-(1,3-benzothiazol-2-yl)butanoyl]decahydroquinoline-4-carboxylic acid] | > 250
O=C(O)C1CCN(C(=O)CC(c2ccccc2)c2c[nH]c3cccc(Cl)c23)C2CCCCC12 (stereo not shown) [Example 155, 1-[3-(4-chloro-1H-indol-3-yl)-3-phenylpropanoyl]decahydroquinoline-4-carboxylic acid] | > 250
CC(CC(=O)N1CCC(C(=O)O)C2CCCCC21)c1c[nH]c2cccc(Cl)c12 (stereo not shown) [Example 158, 1-[3-(4-chloro-1H-indol-3-yl)butanoyl]decahydroquinoline-4-carboxylic acid] | > 250
CC(C)C(CC(=O)N1CCC(C(=O)O)C2CCCCC21)c1c[nH]c2ncccc12 (stereo not shown) [Example 163, 1-[4-methyl-3-(1H-pyrrolo[2,3-b]pyridin-3-yl)pentanoyl]decahydro quinoline-4-carboxylic acid] | > 250
CC(CC(=O)N1CCC(C(=O)O)C2CCCCC21)c1c[nH]c2ncccc12 (stereo not shown) [Example 165, 1-[3-(1H-pyrrolo[2,3-b]pyridin-3-yl)butanoyl]decahydroquinoline-4-carboxylic acid] | > 250
CC(CC(=O)N1CCCC2CCCCC21)n1nnc2c(Cl)cccc21 (stereo not shown) [Example 166, 3-(4-chloro-1H-benzotriazol-1-yl)-1-(octahydroquinolin-1(2H)-yl)butan-1-one] | > 250
Cc1cccc2c1nnn2C(C)CC(=O)N1CCC(C(=O)O)C2CCCCC21 (stereo not shown) [Example 168, 1-[3-(4-methyl-1H-benzotriazol-1-yl)butanoyl]decahydroquinoline-4-carboxylic acid] | > 250
Cc1cccc2nn(C(C)CC(=O)N3CCC(C(=O)O)C4CCCCC43)nc12 (stereo not shown) [Example 169, 1-[3-(4-methyl-2H-benzotriazol-2-yl)butanoyl]decahydroquinoline-4-carboxylic acid] | > 250
O=C(O)C1CCC2CCCCC2N1C(=O)CC(c1cccs1)c1c[nH]c2cccc(F)c12 (stereo not shown) [Example 170, 1-[3-(4-fluoro-1H-indol-3-yl)-3-(thiophen-2-yl)propanoyl]decahydroquinoline-2-carboxylic acid] | > 250

Now from value to molecule:

IC50 [nM] | Compound
> 250 | N#CC(CC(=O)N1CCCC2CCCCC21)c1c[nH]c2ccccc12 (stereo not shown) [Example 109, 2-(1H-indol-3-yl)-4-(octahydroquinolin-1(2H)-yl)-4-oxobutanenitrile]
> 250 | CC(C)(c1c[nH]c2ccccc12)C(C#N)C(=O)N1CCCC2CCCCC21 (stereo not shown) [Example 110, 3-(1H-indol-3-yl)-3-methyl-2-(octahydroquinolin-1(2H)-ylcarbonyl)butanenitrile]
< 100 | CC(C)C(CC(=O)N1CCCC2CCCCC21)c1c[nH]c2cccc(F)c12 (stereo not shown) [Example 111, 3-(4-fluoro-1H-indol-3-yl)-4-methyl-1-(octahydroquinolin-1(2H)-yl)pentan-1-one]
< 100 | CC(C)C(CC(=O)N1CCCC2(C)CCCCC12)c1c[nH]c2cccc(F)c12 (stereo not shown) [Example 112, 3-(4-fluoro-1H-indol-3-yl)-4-methyl-1-(4a-methyloctahydroquinolin-1(2H)-yl)pentan-1-one]
> 250 | CC(CC(=O)N1CCCC2(C)CCCCC12)c1cn(C)c2ccccc12 (stereo not shown) [Example 113, 3-(1-methyl-1H-Indol-3-yl)-1-(4a-methyloctahydroquinolin-1(2H)-yl)butan-1-one]
< 100 | CC(CC(=O)N1CCCC2(C)CCCCC12)c1c[nH]c2cccc(F)c12 (stereo not shown) [Example 114, 3-(4-fluoro-1H-indol-3-yl)-1-(4a-methyloctahydroquinolin-1(2H)-yl)butan-1-one]
< 100 | CC(CC(=O)N1CCCC2CCCCC21)c1c[nH]c2cccc(F)c12 (stereo not shown) [Example 121, 3-(4-fluoro-1H-indol-3-yl)-1-(octahydroquinolin-1(2H)-yl)butan-1-one]
> 250 | CC(CC(=O)N1CCC[C@H]2CCCC[C@@H]21)c1c[nH]c2cccc(Cl)c12 (stereo partly drawn) [Example 126, 3-(4-chloro-1H-indol-3-yl)-1-[trans-(4a,8a)-octahydroquinolin-1(2H)-yl]butan-1-one]
150 to 200 | Cc1cccc2[nH]cc(C(C)CC(=O)N3CCCC4(O)CCCCC34)c12 (stereo not shown) [Example 132, 1-(4a-hydroxyoctahydroquinolin-1(2H)-yl)-3-(4-methyl-1H-indol-3-yl)butan-1-one]
< 100 | CC(CC(=O)N1CCC2CCCCC21)c1nc2ccccc2s1 (stereo not shown) [Example 142, 3-(1,3-benzothiazol-2-yl)-1-(octahydro-1H-indol-1-yl)butan-1-one]
< 100 | CC(CC(=O)N1CCCC2CCCCC21)c1c[nH]c2ncccc12 (stereo not shown) [Example 143, 1-(octahydroquinolin-1(2H)-yl)-3-(1H-pyrrolo[2,3-b]pyridin-3-yl)butan-1-one]
150 to 200 | COC12CCCCC1N(C(=O)CC(C)c1c[nH]c3ncccc13)CCC2 (stereo not shown) [Example 153, 1-(4a-methoxyoctahydroquinolin-1(2H)-yl)-3-(1H-pyrrolo[2,3-b]pyridin-3-yl)butan-1-one]
< 100 | O=C(O)C1CCN(C(=O)CC(c2cccs2)c2c[nH]c3cccc(F)c23)C2CCCCC12 (stereo not shown) [Example 156, 1-[3-(4-fluoro-1H-indol-3-yl)-3-(thiophen-2-yl)propanoyl]decahydroquinoline-4-carboxylic acid]
< 100 | O=C(O)C1CCN(C(=O)CC(c2ccc(F)cc2)c2c[nH]c3cccc(F)c23)C2CCCCC12 (stereo not shown) [Example 157, 1-[3-(4-fluoro-1H-indol-3-yl)-3-(4-fluorophenyl)propanoyl]decahydroquinoline-4-carboxylic acid]
100 to 150 | CC(C)C(CC(=O)N1CCCC2CCCCC21)c1c[nH]c2ncccc12 (stereo not shown) [Example 164, 4-methyl-1-(octahydroquinolin-1(2H)-yl)-3-(1H-pyrrolo[2,3-b]pyridin-3-yl)pentan-1-one]
< 100 | CC(CC(=O)N1CCCC2CCCCC21)n1nc2cccc(Cl)c2n1 (stereo not shown) [Example 167, 3-(4-chloro-2H-benzotriazol-2-yl)-1-(octahydroquinolin-1(2H)-yl)butan-1-one]
